Results reported in patent publication US7709701B2, “Genetic manipulation of condensed tannins” (The Samuel Roberts Noble Foundation, priority 2004, dated 2010).

Legend:
[1] = test system: MtBAN (Medicago truncatula BAN homolog) protein; assay: Anthocyanidin reductase activity assay with recombinant MtBAN protein extract (HPLC of products); format: biochemical; conditions: for Products formed on incubation with MtBAN protein extract: NADPH, 100 mM Tris-HCl pH 7.0, 30° C., 30 min, HPLC
[2] = molecular target: AtBAN (Arabidopsis thaliana BAN) protein (Arabidopsis thaliana, UniProt Q9SEV0); format: biochemical; conditions: for Products formed on incubation with AtBAN protein extract: NADPH as coenzyme, 4-month old frozen protein extracts, HPLC
anthocyanidin reductase [3] = assay: Anthocyanidin reductase assay with desalted crude enzyme from Lotus corniculatus leaves; format: biochemical; conditions: 1 mM NADPH, 100 μM cyanidin, 30° C., 30 min
Procedure: (§1) Lotus corniculatus, Desmodium uncinatum and Barley cv. Morex were grown in a greenhouse. Young leaves from L. corniculatus, unexpanded leaves, and young pods as well as open flowers and flower buds from D. uncinatum, and young grains from Barley were collected. Seed testas of barley grains were excised and pooled together for enzyme extraction. Mature grape fruit stored at −80° C. was treated in pH 7 100 mM Tris.HCl buffer for 30 seconds for isolating the skin for enzyme extraction.
(§2) A fresh one-gram leaf sample of L. corniculatus, one-gram testa from barley, and 9 grams of grape fruit skin, as well as two grams of flowers, 3 grams of young pods and 3 grams of young unexpanded leaves from Desmodium uncinatum, were independently ground into fine powders in liquid nitrogen. The follow buffer systems were used for enzyme extraction. Extraction buffer 1: pH 7 100 mM Tris.HCl, 10% glycerol and 2 mM 1,4-dithiothreitol; Extraction buffer 2: pH 8 50 mM phosphate buffer, 10% glycerol, 1.5% polyethyleneglycol 4000 (PEG-4000), 2 mM pH 8.0 Na-EDTA, 25 mM sodium ascorbate, 20 mM β-mecaptoenthanol, and 5 mM 1,4-dithiothreitol; Extraction buffer 3: pH 8 100 mM Tris.HCl, 10% glycerol 1.5% polyethyleneglycerol 4000 (PEG-4000), 2 mM pH 8.0 Na-EDTA, 25 mM sodium ascorbate, 80 mM β-mecaptoenthanol, and 5 mM 1,4-dithiothreitol. […]

anthocyanidin reductase [4] = molecular target: T1, anthocyanidin reductase (Vitis vinifera, UniProt Q5FB34); assay: Anthocyanidin reductase assay with desalted crude enzyme from grape fruit skin; format: biochemical; conditions: 1 mM NADPH, 100 μM cyanidin, 30° C., 30 min
T1 construct: 100 μM cyanidin and 50-25 μg desalted crude enzyme; from tissue; host or cells: skin of mature grape fruit
Procedure: as §1, §2

anthocyanidin reductase [5] = assay: Anthocyanidin reductase assay with desalted crude enzyme from barley testa; format: biochemical, Hordeum vulgare; conditions: 1 mM NADPH, 100 μM cyanidin, 30° C., 30 min
Procedure: as §1, §2

anthocyanidin reductase [6] = assay: Anthocyanidin reductase assay with desalted crude enzyme from Desmodium uncinatum flowers, leaves and young pods; format: biochemical; conditions: 1 mM NADPH, 100 μM cyanidin, 30° C., 30 min
Procedure: as §1, §2

[7] = reactions containing leucoanthocyanidins

AtBAN (Arabidopsis thaliana BAN) protein, sequence (Q9SEV0 other isoform, or with tags, fused parts or gaps K55Q/I146L/V156I/E157D/T179K/K185E): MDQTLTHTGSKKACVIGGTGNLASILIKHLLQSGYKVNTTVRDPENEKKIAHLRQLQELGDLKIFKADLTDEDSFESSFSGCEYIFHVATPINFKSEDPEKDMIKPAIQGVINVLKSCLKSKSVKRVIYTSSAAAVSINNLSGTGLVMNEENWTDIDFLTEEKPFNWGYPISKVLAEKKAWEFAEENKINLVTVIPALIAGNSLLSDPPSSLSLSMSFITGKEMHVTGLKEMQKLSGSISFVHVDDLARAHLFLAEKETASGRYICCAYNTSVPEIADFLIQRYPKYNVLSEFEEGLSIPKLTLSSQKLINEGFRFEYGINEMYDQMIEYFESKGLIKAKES
T1 sequence (Q5FB34 whole entry R248Q): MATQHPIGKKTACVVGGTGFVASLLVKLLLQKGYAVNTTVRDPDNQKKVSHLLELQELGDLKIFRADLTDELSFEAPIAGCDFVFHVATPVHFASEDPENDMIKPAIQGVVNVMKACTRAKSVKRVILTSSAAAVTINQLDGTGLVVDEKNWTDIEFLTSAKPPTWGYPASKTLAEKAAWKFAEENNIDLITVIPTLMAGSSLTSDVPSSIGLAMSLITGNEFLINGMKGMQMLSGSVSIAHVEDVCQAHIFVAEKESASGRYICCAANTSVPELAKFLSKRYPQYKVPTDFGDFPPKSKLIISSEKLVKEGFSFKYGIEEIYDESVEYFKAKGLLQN

Compound | Products formed on incubation with MtBAN protein extract [1] | Products formed on incubation with AtBAN protein extract [2] | further results
Oc1ccc(-c2[o+]c3cc(O)cc(O)c3cc2O)cc1 [pelargonidin, Pelargonidin chloride] | catalyzed the reduction of pelargonidin into a new compound eluting at 33.6 min | pelargonidin into epi-alfzelechin | 
Oc1cc(O)c2cc(O)c(-c3ccc(O)c(O)c3)[o+]c2c1.[Cl-] [cyanidin, cyanidin chloride] | reducing cyanidin to the corresponding flavan-3-ols, catechin and epicatechin | catalyze the reduction of cyanidin to epicatechin | Product formed by Lotus corniculatus leaf enzyme (anthocyanidin reductase [3]): converted cyanidin into epicatechin; Product formed by grape fruit skin enzyme (anthocyanidin reductase [4]): converted cyanidin into epicatechin; Product formed by barley testa enzyme (anthocyanidin reductase [5]): converted cyanidin into epicatechin; Product formed by Desmodium uncinatum flower, leaf and young pod enzyme (anthocyanidin reductase [6]): converted cyanidin into epicatechin
Oc1cc(O)c2cc(O)c(-c3cc(O)c(O)c(O)c3)[o+]c2c1 [delphinidin, delphinidin chloride] | catalyzed the reduction of delphinidin into putative gallo-catechin and epi-gallocatechin | delphinidin into gallocatechin | 
Oc1cc(O)c2c(c1)O[C@H](c1ccc(O)c(O)c1)[C@@H](O)C2 [(+)-catechin] | does not produce (2S,3R) configuration (−) catechin or (−)epicatechin | does not produce (2S,3R) configuration (−) catechin or (−)epicatechin | 
NC(=O)C1=CN([C@@H]2O[C@H](COP(=O)(O)OP(=O)(O)OC[C@H]3O[C@@H](n4cnc5c(N)ncnc54)[C@H](O)[C@@H]3O)[C@@H](O)[C@H]2O)C=CC1 [NADH] |  |  | Conversion with NADH relative to the level achieved with NADPH ([1]; NADH 2 mM final concentration substituted for NADPH): approximately 50%
leucoanthocyanidins |  |  | LAR activity with recombinant MtBAN [1, 7]: no LAR activity was observed; LAR activity with recombinant AtBAN [2, 7]: no LAR activity was observed
Oc1cc(O)c2c(c1)O[C@H](c1ccc(O)c(O)c1)[C@H](O)C2 [(−)epicatechin, (−)-epicatechin] | does not produce (2S,3R) configuration (−) catechin or (−)epicatechin | does not produce (2S,3R) configuration (−) catechin or (−)epicatechin | 
